Converted amounts (≈) assume the structure as drawn.

In one assay the test system is Proteus mirabilis. Nature of the assay: microbe, parasite or virus in culture. The following applies: PTCC 1776.
Assay [1] has as its system Staphylococcus epidermidis. Nature of the assay: microbe, parasite or virus in culture. The settings on record: PTCC 1435.
Description: Antimicrobial activity against Staphylococcus epidermidis PTCC 1435 by broth disk diffusion microdilution method
The target of assay [2] is T1, NAD-dependent protein deacetylase sirtuin-2 (Homo sapiens, UniProt Q8IXJ6).
T1 sequence (Q8IXJ6 whole entry): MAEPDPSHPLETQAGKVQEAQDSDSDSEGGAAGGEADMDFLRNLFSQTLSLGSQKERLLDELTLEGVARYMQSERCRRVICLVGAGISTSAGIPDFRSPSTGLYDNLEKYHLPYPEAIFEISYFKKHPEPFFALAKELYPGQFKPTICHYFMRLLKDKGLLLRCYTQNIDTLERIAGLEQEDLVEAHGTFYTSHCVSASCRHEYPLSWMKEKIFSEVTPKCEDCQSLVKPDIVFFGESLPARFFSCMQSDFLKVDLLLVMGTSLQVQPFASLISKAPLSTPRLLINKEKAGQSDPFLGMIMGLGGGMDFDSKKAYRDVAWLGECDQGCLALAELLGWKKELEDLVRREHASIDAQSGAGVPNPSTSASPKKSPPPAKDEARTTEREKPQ
In words: Inhibition of sirtuin 2 (unknown origin).

A further assay concerns A549. In words: Anticancer activity against human A549 cells by MTT assay. The class given is functional, cell-based. (Tetrazolium dyes change colour on reduction, which living cells bring about.)
Another assay concerns K562. In words: Anticancer activity against human K562 cells by MTT assay. The class given is functional, cell-based.
The next assay has as its system PC-3. In words: Antiproliferative activity against human PC-3 cells. The class given is functional, cell-based.
In the next assay the test system is LNCaP. In words: Antiproliferative activity against human LNCaP cells. The class given is functional, cell-based.
For assay [3], the system named is Bacillus subtilis. In words: Antibacterial activity against Bacillus subtilis. The assay is classed as functional.
In assay [4] the test system is Staphylococcus aureus. In words: microbe, parasite or virus in culture.
For assay [5], the system named is Escherichia coli. Nature of the assay: microbe, parasite or virus in culture.
In assay [6] the test system is Staphylococcus aureus. In words: Antibacterial activity against Staphylococcus aureus by agar well diffusion method. The assay is classed as functional.
Assay [7] concerns Bacillus subtilis. Nature of the assay: Antibacterial activity against Bacillus subtilis by agar well diffusion method. The class given is functional. (A growth-free zone around the sample is the usual read-out of agar diffusion tests.)
Assay [8] relates to Escherichia coli. In words: Antibacterial activity against Escherichia coli by agar well diffusion method. The class given is functional.
Assay [9] relates to HeLa. In words: Growth inhibition of human HeLa cells at 20 micromol relative to control. The class given is functional. The settings on record: dose 20 µmol.
Another assay deals with HepG2. In words: Growth inhibition of human HepG2 cells at 20 micromol relative to control. The class given is functional. The following applies: dose 20 µmol.
For assay [10], the system named is MDA-MB-231. In words: Growth inhibition of human MDA-MB-231 cells at 20 micromol relative to control. The class given is functional. The following applies: dose 20 µmol.
For assay [11], the system named is HeLa. Nature of the assay: Cytotoxicity against human HeLa cells. The assay is classed as functional, cell-based.
The test system of the next assay is T47D. Nature of the assay: Antiproliferative activity against human T47D cells by MTT reduction assay. The class given is functional, cell-based.
Assay [12] concerns MDA-MB-231. Nature of the assay: Antiproliferative activity against human MDA-MB-231 cells by MTT reduction assay. The class given is functional, cell-based.
The next assay deals with MDA-MB-435. Nature of the assay: Antiproliferative activity against human MDA-MB-435 cells. The class given is functional, cell-based.
Assay [13] deals with Candida albicans. Nature of the assay: Antifungal activity against Candida albicans MTCC 227. The class given is functional.
The test system of another assay is Saccharomyces cerevisiae. In words: Antifungal activity against Saccharomyces cerevisiae MTCC 170. The assay is classed as functional.
In assay [14] the test system is Candida albicans. In words: Antifungal activity against Candida albicans. The class given is functional.
Another assay relates to Candida tropicalis. Nature of the assay: Antifungal activity against Candida tropicalis. The class given is functional.
For the next assay, the system named is Nakaseomyces glabratus. In words: Antifungal activity against Candida glabrata. The assay is classed as functional.
Assay [15] concerns Aspergillus fumigatus. Nature of the assay: Antifungal activity against Aspergillus fumigatus RCMB 02568. The assay is classed as functional.
Assay [16] concerns Syncephalastrum racemosum. In words: Antifungal activity against Syncephalastrum racemosum RCMB 05922. The class given is functional.
Assay [17] relates to Geotrichum candidum. In words: Antifungal activity against Geotrichum candidum RCMB 05097. The assay is classed as functional.
The subject of assay [18] is Candida albicans. Nature of the assay: Antifungal activity against Candida albicans RCMB 05036. The assay is classed as functional.
In assay [19] the test system is Aspergillus fumigatus. In words: Antifungal activity against Aspergillus fumigatus RCMB 02568 assessed as zone of inhibition. The class given is functional.
Assay [20] deals with Syncephalastrum racemosum. In words: Antifungal activity against Syncephalastrum racemosum RCMB 05922 assessed as zone of inhibition. The class given is functional.
The test system of assay [21] is Geotrichum candidum. In words: Antifungal activity against Geotrichum candidum RCMB 05097 assessed as zone of inhibition. The assay is classed as functional.
Assay [22] relates to Candida albicans. Nature of the assay: Antifungal activity against Candida albicans RCMB 05036 assessed as zone of inhibition. The class given is functional.
The subject of another assay is Leishmania major. Nature of the assay: Antileishmanial activity against Leishmania major promastigotes incubated for 72 hrs by micrscopic analysis. The assay is classed as functional.

Description for Proteus mirabilis: Antimicrobial activity against Proteus mirabilis PTCC 1776 by broth disk diffusion microdilution method

`CC1(C)CC(=O)C(=C2SC(N)=C(C#N)C3(S2)C(=O)N(Cc2ccc(Cl)cc2Cl)c2ccccc23)C(=O)C1` (stereo unspecified): the MIC is 16 µg/mL (≈ 28 µM) against Proteus mirabilis and 8 µg/mL (≈ 14 µM) in [1].

Consider `CCOC(=O)C1=C(N)Oc2cc(C)oc(=O)c2C12C(=O)Nc1ccc(Br)cc12` (stereo unspecified), for which, in [2], the IC50 was 124 µM.

Regarding `CC(C)=CC(=O)[C@H]1[C@H](c2ccc(Br)cc2)CN(C)[C@]12C(=O)Nc1ccc(C)cc12`, the IC50 with A549 was 21.1 µM; in the assay with K562, 5.8 µM.

With `CC(O)(CS(=O)(=O)c1ccc(F)cc1)C(=O)Nc1ccc(C#N)c(C(F)(F)F)c1` (stereo unspecified) [BICALUTAMIDE], the figures for the IC50 in the assay on PC-3 and with LNCaP were 1.3 µM and 1.5 µM, respectively.

Regarding `O=C(N[C@H](CO)[C@H](O)c1ccc([N+](=O)[O-])cc1)C(Cl)Cl` [CHLORAMPHENICOL], the MIC worked out at 4 µg/mL (≈ 12.4 µM) with Bacillus subtilis [3], 8 µg/mL (≈ 24.8 µM) against Staphylococcus aureus [4] and 4 µg/mL (≈ 12.4 µM) in the assay on Escherichia coli [5].

In the case of `Cc1nn(-c2ccccc2)c2c1C1(C(=O)Nc3ccc([N+](=O)[O-])cc31)C1=C(CC(C)(C)CC1=O)O2` (stereo unspecified), the MIC with Bacillus subtilis [3] came out at 64 µg/mL (≈ 136 µM); in the assay with Staphylococcus aureus [4] it was 32 µg/mL (≈ 68 µM); in the assay on Escherichia coli [5] it was 128 µg/mL (≈ 272 µM).

For `O=C1CCCC2=C1C1(C(=O)N2c2ccc(Cl)cc2)C2=C(Nc3ccc([N+](=O)[O-])cc31)c1ccccc1C2=O` (stereo unspecified), the MIC amounted to 32 µg/mL (≈ 61.1 µM) against Staphylococcus aureus [6], 32 µg/mL (≈ 61.1 µM) in the assay on Bacillus subtilis [7] and 128 µg/mL (≈ 244 µM) against Escherichia coli [8].

Turning to `Cc1nn(-c2ccccc2)c2c1C1(C(=O)Nc3ccc(Br)cc31)C1=C(CCCC1=O)O2` (stereo unspecified), the MIC was found to be 12 µg/mL (≈ 25.2 µM) with Bacillus subtilis [3], 128 µg/mL (≈ 269 µM) against Staphylococcus aureus [4] and 256 µg/mL (≈ 537 µM) against Escherichia coli [5].

Take `O=C1c2ccccc2C2Oc3c(c(=O)oc4ccccc34)C3(C(=O)Nc4ccc(Br)cc43)C12` (stereo unspecified): the IC50 worked out at 0.03 µM in the assay with PC-3 and 1.9 µM in the assay with LNCaP.

On to `Cc1ccc(/C=C2/CN(C)CC3=C2OC(N)=C(C#N)C32C(=O)Nc3ccccc32)cc1C` (stereo unspecified), for which the entries for the “growth inhibition (GI)” value with HeLa [9], with HepG2 and with MDA-MB-231 [10] were 87.1%, 70.2% and 64.9%, respectively.

Take `CCN(CC)CCNC(=O)c1c(C)[nH]c(/C=C2\C(=O)Nc3ccc(F)cc32)c1C` [SUNITINIB]: in the assay on HeLa [11], the IC50 was over 30 µM.

In the case of `CC/C(=C(\c1ccccc1)c1ccc(OCCN(C)C)cc1)c1ccccc1` [TAMOXIFEN], the half-maximal inhibitory concentration (IC50) in the assay with T47D stood at 14.2 µM; in the assay with MDA-MB-231 [12], 14.5 µM; in the assay with MDA-MB-435, 0.1 µM.

On to `COc1ccc(-n2cc(CN3C(=O)C4(C(C#N)=C(N)OC5=C4C(=O)CC(C)(C)C5)c4ccccc43)nn2)cc1` (stereo unspecified), for which the figures for the MIC in the assay with Candida albicans [13] and with Saccharomyces cerevisiae were 128 µg/mL (≈ 245 µM) and 64 µg/mL (≈ 122 µM), respectively.

Take `N#CC1=C(N)OC2=C(CSC/C2=C/c2ccc(C(F)(F)F)cc2)C12C(=O)Nc1ccccc12` (stereo unspecified): the “growth inhibition (GI)” value in the assay with HeLa [9] turned out to be 83.2%; with HepG2, 73.1%; in the assay on MDA-MB-231 [10], 61.3%.

`CCOC(=O)C1=C(N)Oc2cc(C)oc(=O)c2C12C(=O)N(Cc1ccccc1)c1ccccc12` (stereo unspecified) yielded a concentration for half-maximal inhibition (IC50) in [2] of 126 µM.

For `C[C@@H]1[C@H](O)[C@@H](C)/C=C/C=C/C=C/C=C/C=C/C=C/C=C/[C@H](O[C@@H]2O[C@H](C)[C@@H](O)[C@H](N)[C@@H]2O)C[C@@H]2O[C@](O)(C[C@@H](O)C[C@@H](O)[C@H](O)CC[C@@H](O)C[C@@H](O)CC(=O)O[C@H]1C)C[C@H](O)[C@H]2C(=O)O` [AMPHOTERICIN B], the MIC was determined as 12.5 µg/mL (≈ 13.5 µM) with Candida albicans [14]; 12.5 µg/mL (≈ 13.5 µM) against Candida tropicalis; 12.5 µg/mL (≈ 13.5 µM) with Nakaseomyces glabratus; 100 µg/mL (≈ 108 µM) with Candida albicans [13]; 100 µg/mL (≈ 108 µM) in the assay on Saccharomyces cerevisiae; 0.015 µg/mL (≈ 0.0162 µM) against Aspergillus fumigatus [15]. The MIC in [16] amounted to 1.95 µg/mL (≈ 2.11 µM); in the assay on Geotrichum candidum [17], 0.015 µg/mL (≈ 0.0162 µM); in the assay with Candida albicans [18], 0.06 µg/mL (≈ 0.0649 µM); in the assay on Leishmania major, 0.49 µM (≈ 0.453 µg/mL). For the same molecule, the “diameter of the inhibition zone (DIZ)” value is listed as 23 mm with Aspergillus fumigatus [19], 22.1 mm in assay [20], 29 mm in the assay with Geotrichum candidum [21] and 26 mm with Candida albicans [22].

As to `CC1(C)CC(=O)C2=C(C1)N(c1ccccc1)C(=O)C21C2=C(Nc3ccc([N+](=O)[O-])cc31)c1ccccc1C2=O` (stereo unspecified), the values for the MIC in the assay with Staphylococcus aureus [6], in the assay on Bacillus subtilis [7] and with Escherichia coli [8] were 16 µg/mL (≈ 30.9 µM), 16 µg/mL (≈ 30.9 µM) and 128 µg/mL (≈ 247 µM), respectively.

For orientation: IC50 means the midpoint of a concentration-inhibition curve. Read a low IC50 as greater potency in that assay.

Values taken from ChEMBL document CHEMBL5226286, “The application of isatin-based multicomponent-reactions in the quest for new bioactive and druglike molecules” (Eur J Med Chem, 2021).
